Experiments:
[1] = tested on: COS-7 cells; assay: Transient transfection of CAT plasmid pG1035 with cationic lipids, CAT activity in lysate; type: cell-based, African green monkey; details: for Mean (transient transfection efficiency; CAT activity normalized to total protein): CAT plasmid pG1035 2 μg/mL, lipid 18 μg/mL (9 to 1 lipid to DNA), triplicate; for REL (transient transfection efficiency relative to best lipid in the cell line): CAT plasmid pG1035, 9 to 1 lipid to DNA
Description: (§1) Cell lines were plated at 1.5×10^5 cells/well in a 12 well plate format on the day before tranfection. […] This small quantity of ethanol was confirmed to have no adverse effect on any of the cell lines. […] Cell lysates were prepared by rinsing twice in PBS and then were treated with 0.5 mL of 1× Reporter Lysis Buffer (Promega, Madison, Wis.). The lysed cells were pipetted into 1.5 mL tubes and frozen in CO2/EtOH once and thawed. The crude lysate was then clarified by microcentrifugation at 14,000 rpm for 10 minutes to pellet cell debris. The clear supernatant was recovered and assayed directly or stored at -20° C. for assay later. The cell lysates were then assayed for CAT activity and the total protein concentration was determined as described below in Example 7. The CAT activity was normalized to total protein and plotted as shown. This assay was performed generally as follows. First, the following reaction mixture was prepared for each sample: […] Louis, Mo.), 4 mL ^14C-chloramphenicol, 50 nCi/mL (Dupont, Boston, Mass.), and 5 mL mg/mL n-butyryl coenzyme A (Pharmacia, Piscataway, N.J.). […] The original stock CAT was at 7000 Units/mL. […] Approximately […] of reaction mixture was then added to each sample tube, which was then typically incubated for approximately 1 hour in a 37° C. oven. The reaction was terminated by adding […] pristane:mixed xylenes (2:1) (Sigma, St. Louis, Mo.) to each tube. The tubes were then vortexed for 2 minutes and spun for 5 minutes. Approximately […] of the upper phase was transferred to a scintillation vial with 5 mL Scintiverse (Fisher, Pittsburgh, Pa.). The sample was then counted in a scintillation counter (Packard). The plasmid pG1035 was used for transient transfections of COS-7 (ATCC # CRL-1651), SNB-19, C8161 and RD (ATCC # CCL-136) cells. pG1035 consists of a modified CAT (choramphenicol acetyl transferase) gene (named […]) inserted into the eukaryotic vector pRc/CMV (Invitrogen, San Diego, Calif.). […] created by inserting an artificial intron into the wild type CAT gene sequence in a plasmid named pG1036 (also based on pRc/CMV) using the polymerase chain reaction. […] Concentration curve standards were prepared using 6 μL of […] BSA stock solutions and 300 mL of the Coomassie reagent. The assay samples were allowed to sit for approximately 30 minutes before reading the optical absorbance at 570 nm in a microplate reader (Molecular Probes). The cells were assayed for CAT protein as described above.

[2] = tested on: C8161 cells; assay: as above; type: cell-based, human; details: for Mean (transient transfection efficiency; CAT activity normalized to total protein): CAT plasmid pG1035 2 μg/mL, lipid 18 μg/mL (9 to 1 lipid to DNA), triplicate; for REL (transient transfection efficiency relative to best lipid in the cell line): CAT plasmid pG1035, 9 to 1 lipid to DNA
Description: as §1

[3] = tested on: RD cells; assay: as above; type: cell-based, human; details: for Mean (transient transfection efficiency; CAT activity normalized to total protein): CAT plasmid pG1035 2 μg/mL, lipid 18 μg/mL (9 to 1 lipid to DNA), triplicate; for REL (transient transfection efficiency relative to best lipid in the cell line): CAT plasmid pG1035, 9 to 1 lipid to DNA
Description: as §1

[4] = tested on: SNB-19 cells; assay: as above; type: cell-based, human; details: for Mean (transient transfection efficiency; CAT activity normalized to total protein): CAT plasmid pG1035 2 μg/mL, lipid 18 μg/mL (9 to 1 lipid to DNA), triplicate; for REL (transient transfection efficiency relative to best lipid in the cell line): CAT plasmid pG1035, 9 to 1 lipid to DNA
Description: as §1

[5] = tested on: COS-7 cells; assay: FITC-oligonucleotide uptake assay (nuclear fluorescence score); type: cell-based, African green monkey; design: key: 0: No nuclear fluorescence; 1: up to 20% fluorescent nuclei; 2: up to 40% fluorescent nuclei; 3: up to 60% fluorescent nuclei; 4: up to 80% fluorescent nuclei; 5: up to 100% fluorescent nuclei; details: COS7, lipid:oligomer 9:1 or 6:1 by weight, 4-6 h
[6] = tested on: SNB-19 cells; assay: as above; type: cell-based, human; design: key: 0: No nuclear fluorescence; 1: up to 20% fluorescent nuclei; 2: up to 40% fluorescent nuclei; 3: up to 60% fluorescent nuclei; 4: up to 80% fluorescent nuclei; 5: up to 100% fluorescent nuclei; details: SNB19, lipid:oligomer 9:1 or 6:1 by weight, 4-6 h
[7] = tested on: C8161 cells; assay: as above; type: cell-based, human; design: key: 0: No nuclear fluorescence; 1: up to 20% fluorescent nuclei; 2: up to 40% fluorescent nuclei; 3: up to 60% fluorescent nuclei; 4: up to 80% fluorescent nuclei; 5: up to 100% fluorescent nuclei; details: lipid:oligomer 9:1 or 6:1 by weight, 4-6 h
[8] = tested on: RD cells; assay: as above; type: cell-based, human; design: key: 0: No nuclear fluorescence; 1: up to 20% fluorescent nuclei; 2: up to 40% fluorescent nuclei; 3: up to 60% fluorescent nuclei; 4: up to 80% fluorescent nuclei; 5: up to 100% fluorescent nuclei; details: lipid:oligomer 9:1 or 6:1 by weight, 4-6 h
[9] = FITC oligomer 3498-PS (phosphorothioate) 0.25 micromolar
[10] = FITC oligomer 3498 Chimera 0.25 micromolar
[11] = FITC oligomer 3793-2 alternating (methylphosphonate/diester, 2'-O-methyl) 0.25 micromolar

SMILES	Mean (transient transfection efficiency; CAT activity normalized to total protein) [1]	REL (transient transfection efficiency relative to best lipid in the cell line) [1]	Mean (transient transfection efficiency; CAT activity normalized to total protein) [2]	REL (transient transfection efficiency relative to best lipid in the cell line) [2]	Mean (transient transfection efficiency; CAT activity normalized to total protein) [3]	REL (transient transfection efficiency relative to best lipid in the cell line) [3]	Mean (transient transfection efficiency; CAT activity normalized to total protein) [4]	REL (transient transfection efficiency relative to best lipid in the cell line) [4]	Nuclear delivery of oligonucleotide (uptake score) [5, 9]	Nuclear delivery of oligonucleotide (uptake score) [5, 10]	Nuclear delivery of oligonucleotide (uptake score) [5, 11]	Nuclear delivery of oligonucleotide (uptake score) [6, 9]	Nuclear delivery of oligonucleotide (uptake score) [6, 10]	Nuclear delivery of oligonucleotide (uptake score) [6, 11]	Nuclear delivery of oligonucleotide (uptake score) [7, 9]	Nuclear delivery of oligonucleotide (uptake score) [7, 10]	Nuclear delivery of oligonucleotide (uptake score) [7, 11]	Nuclear delivery of oligonucleotide (uptake score) [8, 9]	Nuclear delivery of oligonucleotide (uptake score) [8, 10]	Nuclear delivery of oligonucleotide (uptake score) [8, 11]
CCCCCCCCCCCCCCCCCCN(CCCCCCCCCCCCCCCCCC)C(=O)CC[C@H](NC(=O)[C@H](CCCNCCCN)NCCCN)C(=O)O.Cl.Cl.Cl.Cl [Compound 2-5, N^2-[N^2,N^5-Bis(3-aminopropyl)-L-ornithyl]-N,N-dioctadecyl-L-glutamine, tetrahydrochloride]	55598	0.33	137710	0.69	73921	0.41	103280	0.55	2 (up to 40% fluorescent nuclei)	2 (up to 40% fluorescent nuclei)	1 (up to 20% fluorescent nuclei)	3 (up to 60% fluorescent nuclei)	3 (up to 60% fluorescent nuclei)	3 (up to 60% fluorescent nuclei)	3 (up to 60% fluorescent nuclei)	4 (up to 80% fluorescent nuclei)	3 (up to 60% fluorescent nuclei)	3 (up to 60% fluorescent nuclei)	4 (up to 80% fluorescent nuclei)	4 (up to 80% fluorescent nuclei)
CCCCCCCCCCCCCCCCCC(CCCCCCCCCCCCCCCCC)NC(=O)CNC(=O)CNC(=O)[C@H](CCCNCCCN)NCCCN.O=C(O)C(F)(F)F.O=C(O)C(F)(F)F.O=C(O)C(F)(F)F.O=C(O)C(F)(F)F [Compound 1-10, N^2,N^5-Bis(3-aminopropyl)-L-ornithylglycyl-N-(1-heptadecyloctadecyl)glycinamide, Tetrahydrotrifluoroacetate]	148040	0.87	159578	0.8	124232	0.7	166179	0.88	4 (up to 80% fluorescent nuclei)	3 (up to 60% fluorescent nuclei)	0	4 (up to 80% fluorescent nuclei)	4 (up to 80% fluorescent nuclei)	0	5 (up to 100% fluorescent nuclei)	3 (up to 60% fluorescent nuclei)	0	5 (up to 100% fluorescent nuclei)	4 (up to 80% fluorescent nuclei)	0

Reference: patent US6638529B2, “Amide-based cationic lipids” (Genta Incorporated, priority 1995, dated 2003)
